In patent US11660293B2, “Substituted 2-azabicyclo[3.1.1]heptane and 2-azabicyclo[3.2.1]octane derivatives as orexin receptor antagonists” (Chronos Therapeutics Limited, priority 2017, dated 2023):

Key:
[1] = molecular target: human Orexin type 1 receptors (Homo sapiens (Human), UniProt O43613); assay: Scintillation Proximity Assay (SPA) binding assay, [3H]SB-674042 displacement, CHO-hOX1 membranes; details: for Ki: read-out: OX1 pKi (SPA binding) (converted)
Method: Scintillation Proximity Assay (SPA) Binding Assays CHO cells stably transfected with human Orexin type 1 receptors (CHO-hOX1) or HEK-293 cells transiently transfected with human Orexin type 2 receptors (HEK-hOX2) were collected after 16 h induction with 5 mM sodium butyrate. […] The binding was performed in a final volume of 200 μl. 100 μl of hOX1 or hOX2 beads-membranes suspension were added to 100 μl of [^3H]SB-674042 or [^3H]EMPA solutions (radioligand concentration 2 nM final in the assay), into the 96-well Isoplates containing the 2 μl/well of compounds to be tested. Nonspecific binding was measured in the presence of 1 μM Almorexant. Assay plates were then incubated at room temperature for 3 h before being counted in a Microbeta scintillation counter (PerkinElmer). Data were analysed by non-linear regression analysis using XLfit Software.

[2] = molecular target: human Orexin type 2 receptors (Homo sapiens (Human), UniProt O43614); assay: Scintillation Proximity Assay (SPA) binding assay, [3H]EMPA displacement, HEK-hOX2 membranes; details: for Ki: read-out: OX2 pKi (SPA binding) (converted)
Method: Scintillation Proximity Assay (SPA) Binding Assays
CHO cells stably transfected with human Orexin type 1 receptors (CHO-hOX1) or HEK-293 cells transiently transfected with human Orexin type 2 receptors (HEK-hOX2) were collected after 16 h induction with 5 mM sodium butyrate. The cell pellets were re-suspended, homogenized in 15 mM Tris/HCl pH=7.5, 1 mM EGTA, 0.3 mM EDTA, 2 mM MgCl2, protease inhibitors and centrifuged at 40,000 g (20 min, 4° C.). After re-suspension, homogenization and centrifugation as above, the final pellets were re-suspended in 75 mM Tris/HCl pH=7.5, 1 mM EGTA, 0.3 mM EDTA, 12.5 mM MgCl2, 250 mM Sucrose, protease inhibitors, divided into aliquots and frozen down at −80° C.
CHO-hOX1 cell membranes (6 μg ml^−1) or HEK-hOX2 membranes (8 μg ml^−1) were pre-coupled with 1.0 mg ml^−1 of Wheatgerm Agglutinin-coated Yttrium Silicate (YSi-WGA) SPA beads (Perkin Elmer) in buffer containing 25 mM HEPES pH=7.4, 1 mM CaCl2), 5 mM MgCl2, 0.01% (w/v) BSA, 0.02% (w/v) Pluronic F-127 by shaking at room temperature for 2.5-3 h.
The binding was performed in a final volume of 200 μl. 100 μl of hOX1 or hOX2 beads-membranes suspension were added to 100 μl of [^3H]SB-674042 or [^3H]EMPA solutions (radioligand concentration 2 nM final in the assay), into the 96-well Isoplates containing the 2 μl/well of compounds to be tested. Nonspecific binding was measured in the presence of 1 μM Almorexant. Assay plates were then incubated at room temperature for 3 h before being counted in a Microbeta scintillation counter (PerkinElmer).
Data were analysed by non-linear regression analysis using XLfit Software.

Chain of human Orexin type 1 receptors (O43613 whole entry): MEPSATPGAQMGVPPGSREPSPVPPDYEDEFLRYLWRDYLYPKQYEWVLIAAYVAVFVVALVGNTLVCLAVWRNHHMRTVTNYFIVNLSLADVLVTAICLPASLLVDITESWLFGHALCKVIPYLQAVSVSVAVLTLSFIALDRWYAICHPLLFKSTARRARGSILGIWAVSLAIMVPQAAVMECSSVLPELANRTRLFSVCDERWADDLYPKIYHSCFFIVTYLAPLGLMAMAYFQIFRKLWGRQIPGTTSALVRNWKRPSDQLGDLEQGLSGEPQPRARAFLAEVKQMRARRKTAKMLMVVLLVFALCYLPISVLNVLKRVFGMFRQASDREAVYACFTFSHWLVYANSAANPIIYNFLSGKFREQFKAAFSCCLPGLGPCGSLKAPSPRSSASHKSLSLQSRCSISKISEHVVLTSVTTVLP
Chain of human Orexin type 2 receptors (O43614 whole entry): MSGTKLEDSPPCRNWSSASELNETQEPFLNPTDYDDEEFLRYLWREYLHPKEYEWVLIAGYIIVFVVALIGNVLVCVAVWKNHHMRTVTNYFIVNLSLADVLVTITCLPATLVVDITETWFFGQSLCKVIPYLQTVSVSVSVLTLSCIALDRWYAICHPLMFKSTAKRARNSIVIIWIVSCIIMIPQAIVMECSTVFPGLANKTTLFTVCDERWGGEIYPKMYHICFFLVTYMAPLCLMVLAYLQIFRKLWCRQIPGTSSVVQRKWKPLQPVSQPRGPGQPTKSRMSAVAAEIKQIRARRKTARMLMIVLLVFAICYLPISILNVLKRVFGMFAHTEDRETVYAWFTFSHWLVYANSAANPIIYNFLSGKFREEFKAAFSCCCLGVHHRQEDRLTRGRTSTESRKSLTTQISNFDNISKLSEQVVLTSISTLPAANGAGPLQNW

Structure (SMILES)	OX1 pKi (SPA binding) ([1]; Table 2, [3H]SB-674042 2 nM)	OX2 pKi (SPA binding) ([2]; Table 2, [3H]EMPA 2 nM)	other results
Cc1nc(C(=O)N2C3CC(C3)[C@@H](C)C2COc2ccc(F)cc2)c(-c2cncc(Cl)c2)s1 (mixture of isomers) [Example 139, cis-2-[5-(5-chloropyridin-3-yl)-2-methyl-1,3-thiazole-4-carbonyl]-3-[(4-fluorophenoxy)methyl]-4-methyl-2-azabicyclo[3.1.1]heptane]	7.85	6.18	
C[C@@H]1C2CC(C2)N(C(=O)c2cc(Cl)ccc2-n2nccn2)C1CNc1ncc(C2CC2)cn1 (stereo partly drawn) [Example 259]	7.66	5.32	
C[C@@H]1C2CC(C2)N(C(=O)c2nn(C)cc2-c2ccccc2)C1CNc1ccc(C(F)(F)F)cn1 (mixture of isomers) [Example 210, cis-N-{[4-methyl-2-(1-methyl-4-phenyl-1H-pyrazole-3-carbonyl)-2-azabicyclo[3.1.1]heptan-3-yl]methyl}-5-(trifluoromethyl)pyridin-2-amine]	8.69	5.84	
Cc1ccc(-n2nccn2)c(C(=O)N2C3CC(C3)[C@@H](C)C2CNc2nc3ccccc3s2)n1 (stereo partly drawn) [Example 178, cis-N-({4-methyl-2-[6-methyl-3-(2H-1,2,3-triazol-2-yl)pyridine-2-carbonyl]-2-azabicyclo[3.1.1]heptan-3-yl}methyl)-1,3-benzothiazol-2-amine]	8.52	5.63	
Cc1ccc(-n2nccn2)c(C(=O)N2C3CC(C3)[C@@H](C)C2COc2ccc(C(F)(F)F)cn2)n1 (mixture of isomers) [Example 129, cis-4-methyl-2-[6-methyl-3-(2H-1,2,3-triazol-2-yl)pyridine-2-carbonyl]-3-({[5-(trifluoromethyl)pyridin-2-yl]oxy}methyl)-2-azabicyclo[3.1.1]heptane]	6.81	5.14	
Cc1ccc(-c2sc(C)nc2C(=O)N2C3CC(C3)[C@@H](C)C2COc2ccc(F)cc2)cn1 (stereo partly drawn) [Example 143, cis-3-[(4-fluorophenoxy)methyl]-4-methyl-2-[2-methyl-5-(6-methylpyridin-3-yl)-1,3-thiazole-4-carbonyl]-2-azabicylco[3.1.1]heptane]	7.14	5.93	
Cc1ccc(-n2nccn2)c(C(=O)N2C3CC(C3)[C@H](C)C2COc2ccc(F)c(F)c2)n1 (mixture of isomers) [Example 111, trans-3-[(3,4-difluorophenoxy)methyl]-4-methyl-2-[6-methyl-3-(2H-1,2,3-triazol-2-yl)pyridine-2-carbonyl]-2-azabicyclo[3.1.1]heptane]			OX1 pKi (SPA binding) ([1]; Table 1, [3H]SB-674042 2 nM): 7.53; OX2 pKi (SPA binding) ([2]; Table 1, [3H]EMPA 2 nM): 5.99
Cc1ccc(-n2nccn2)c(C(=O)N2C3CC(C3)[C@@H](C)C2CNc2ncc3ccccc3n2)n1 (stereo partly drawn) [Example 155, cis-N-({4-methyl-2-[6-methyl-3-(2H-1,2,3-triazol-2-yl)pyridin-2-carbonyl]-2-azabicyclo[3.1.1]heptan-3-yl}methyl)quinazolin-2-amine]	7.71	5.49	
C[C@@H]1C2CC(C2)N(C(=O)c2ccc(F)cc2-n2nccn2)C1CNc1cnc(C(F)(F)F)cn1 (stereo partly drawn) [Example 252]	7.19	4.95	
Cc1ccc(-n2nccn2)c(C(=O)N2C3CC(C3)[C@@H](C)C2CNc2nc3ccccc3s2)n1 (single isomer, unassigned) [Example 180, N-{[(3R,4S) or (3S,4R)-4-methyl-2-[6-methyl-3-(2H-1,2,3-triazol-2-yl)pyridine-2-carbonyl]-2-azabicyclo[3.1.1]heptan-3-yl]methyl}-1,3-benzothiazol-2-amine]	8.78	5.58	
Cc1nc(C(=O)N2C(COc3cnc4ccccc4n3)CC3CC2C3)c(-c2ccccc2)s1 (stereo not drawn) [Example 58]			OX1 pKi (SPA binding) ([1]; Table 1, [3H]SB-674042 2 nM): 7.4; OX2 pKi (SPA binding) ([2]; Table 1, [3H]EMPA 2 nM): 6.76
Cc1nc(C(=O)N2C3CC(C3)[C@H](F)[C@H]2COc2ccc(F)cn2)c(-c2ccccc2)s1 (single isomer, unassigned) [Example 63, (3R,4S or 3S,4R)-4-fluoro-3-{[(5-fluoropyridin-2-yl)oxy]methyl}-2-(2-methyl-5-phenyl-1,3-thiazole-4-carbonyl)-2-azabicyclo[3.1.1]heptane]			OX1 pKi (SPA binding) ([1]; Table 1, [3H]SB-674042 2 nM): 8.06; OX2 pKi (SPA binding) ([2]; Table 1, [3H]EMPA 2 nM): 6.37
Cc1nc(C(=O)N2C3CC(C3)[C@H](C)C2COc2ccc(F)cn2)c(-c2ncccn2)s1 (mixture of isomers) [Example 116, trans-3-{[(5-fluoropyridin-2-yl)oxy]methyl}-4-methyl-2-[2-methyl-5-(pyrimidin-2-yl)-1,3-thiazole-4-carbonyl]-2-azabicyclo[3.1.1]heptane]	7.32	5.26	
Cc1ccc(-n2nccn2)c(C(=O)N2C3CC(C3)[C@@H](C)C2CNc2cnc3ccccc3n2)n1 (single isomer, unassigned) [Example 160, N-{[(3R,4S) or (3S,4R)-4-methyl-2-[6-methyl-3-(2H-1,2,3-triazol-2-yl)pyridine-2-carbonyl]-2-azabicyclo[3.1.1]heptan-3-yl]methyl}quinoxalin-2-amine]	8.68	5.98	
Cc1nc(C(=O)N2C(CNc3ccc4ccccc4n3)CC3CC2C3)c(-c2ccccc2)s1 (stereo not drawn) [Example 60, N-{[2-(2-methyl-5-phenyl-1,3-thiazole-4-carbonyl)-2-azabicyclo[3.1.1]heptan-3-yl]methyl}quinolin-2-amine]			OX1 pKi (SPA binding) ([1]; Table 1, [3H]SB-674042 2 nM): 8.27; OX2 pKi (SPA binding) ([2]; Table 1, [3H]EMPA 2 nM): 7.39
Cc1ccc(-n2nccn2)c(C(=O)N2C3CC(C3)[C@@H](C)C2CNc2ccc(Cl)cn2)n1 (mixture of isomers) [Example 156, cis-5-chloro-N-({4-methyl-2-[6-methyl-3-(2H-1,2,3-triazol-2-yl)pyridine-2-carbonyl]-2-azabicyclo[3.1.1]heptan-3-yl}methyl)pyridin-2-amine]	7.53	5.35	
C[C@@H]1C2CC(C2)N(C(=O)c2cc(Cl)ccc2-n2nccn2)C1CNc1ncc(C(F)(F)F)cn1 (single isomer, unassigned) [Example 241, N-{[(3R,4S) or (3S,4R)-2-[5-chloro-2-(2H-1,2,3-triazol-2-yl)benzoyl]-4-methyl-2-azabicyclo[3.1.1]heptan-3-yl]methyl}-5-(trifluoromethyl)pyrimidin-2-amine]	8.27	5.59	
Cc1ccc(-c2ncccn2)c(C(=O)N2C3CC(C3)[C@H](C)[C@@H]2COc2ccc(F)cc2)n1 (single isomer, unassigned) [Example 91, (3S,4R or 3R,4S)-3-(4-fluorophenoxymethyl)-4-methyl-2-[6-methyl-3-(pyrimidin-2-yl)pyridine-2-carbonyl]-2-azabicyclo[3.1.1]heptane]			Ki ([1]; Table 1, [3H]SB-674042 2 nM): 3.47 nM; Ki ([2]; Table 1, [3H]EMPA 2 nM): 35.5 nM
C[C@@H]1C2CC(C2)N(C(=O)c2cc(C#N)ccc2-n2nccn2)C1CNc1nc2ccc(F)cc2s1 (single isomer, unassigned) [Example 177, 3-[(3R,4S) or (3S,4R)-3-{[(6-fluoro-1,3-benzothiazol-2-yl)amino]methyl}-4-methyl-2-azabicyclo[3.1.1]heptane-2-carbonyl]-4-(2H-1,2,3-triazol-2-yl)benzonitrile]	8.95	6.46	
Cc1ccc(-n2ncc(C)n2)c(C(=O)N2C3CC(C3)[C@H](C)C2COc2ccc(F)cc2)n1 (mixture of isomers) [Example 127, trans-3-[(4-fluorophenoxy)methyl]-4-methyl-2-[6-methyl-3-(4-methyl-2H-1,2,3-triazol-2-yl)pyridine-2-carbonyl]-2-azabicyclo[3.1.1]heptane]	7.91	6.1	
Cc1nc(C(=O)N2C3CC(C3)[C@@H](C)[C@@H]2COc2cc3ccccc3cn2)c(-c2ccccc2)s1 (single isomer, unassigned) [Example 88, 3-{[(3S,4S or 3R,4R)-4-methyl-2-(2-methyl-5-phenyl-1,3-thiazole-4-carbonyl)-2-azabicyclo[3.1.1]heptan-3-yl]methoxy}isoquinoline]			Ki ([1]; Table 1, [3H]SB-674042 2 nM): 12 nM; Ki ([2]; Table 1, [3H]EMPA 2 nM): 275 nM
